Assay results published in patent publication US8119632B2, “Bicyclic amide derivatives for enhancing glutamatergic synaptic responses” (Cortex Pharmaceuticals, Inc., priority 2007, dated 2012).

Experiments:
AMPA receptor = test: In vivo electrophysiology: amplitude of field EPSP in dentate gyrus of anesthetized animals; set-up: species or system rat; conditions: for In vivo Electrophysiology: % increase in the amplitude of the field EPSP in the dentate gyrus of rat: 10 mpk i.p.
Description: (§1) The electrophysiological effects of the invention compounds were tested in vivo in anesthetized animals according to the following procedures. Animals are maintained under anesthesia by phenobarbital administered using a Hamilton syringe pump. Stimulating and recording electrodes are inserted into the perforant path and dentate gyrus of the hippocampus, respectively. Once electrodes are implanted, a stable baseline of evoked responses are elicited using single monophasic pulses (100 μs pulse duration) delivered at 3/min to the stimulating electrode. Field EPSPs are monitored until a stable baseline is achieved (about 20-30 min), after which a solution of test compound is injected intraperitoneally and evoked field potentials are recorded. Evoked potentials were recorded for approximately 2 h following drug administration or until the amplitude of the field EPSP returns to baseline. In the latter instance, it is common that an iv administration is also carried out with an appropriate dose of the same test compound. Invention compounds were assayed in the in vivo electrophysiology assay described above and data for representative test compounds is shown in the Table.
The electrophysiological effects of invention compounds were tested in vivo in anesthetized animals according to the following procedures.
as §1, with “Animals” for “The electrophysiological effects of the invention compounds were tested in vivo in anesthetized animals according to the following procedures. Animals”, “are” for “were”, “compound.” for “compound. Invention compounds were assayed in the in vivo electrophysiology assay described above and data for representative test compounds is shown in the Table.”

SMILES | increase in amplitude of the field EPSP (AMPA receptor; rat dentate gyrus, 50 mg/kg i.p.) | melting point | In vivo Electrophysiology: % increase in the amplitude of the field EPSP in the dentate gyrus of rat (AMPA receptor)
O=C(c1ccc2nccnc2c1)N1CCCCC1 [CX516, 1-(quinoxalin-6-ylcarbonyl)piperdine, reference compound] | 9% |  | 
O=C(c1ccc2nonc2c1)N1C2CCC1COC2 [Example 1, [2,1,3]-Benzoxadiazol-5-yl(3-oxa-8-azabicyclo[3.2.1]oct-8-yl)methanone] |  | 139 to 140 °C | 17%
O=C(c1ccc2nonc2c1)N1C2CCCC1COC2 [Example 2, [2,1,3]-Benzoxadiazol-5-yl(3-oxa-9-azabicyclo[3.3.1]non-9-yl)methanone] |  | 128 to 130 °C | 16%
O=C(c1ccc2nonc2c1)N1C2COCC1COC2 [Example 3, [2,1,3]-Benzoxadiazol-5-yl(3,7-dioxa-9-azabicyclo[3.3.1]non-9-yl)methanone] |  | 197 to 199 °C | 15%
